ChEMBL document CHEMBL1201862, “PubChem BioAssay data set” (2004)
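Results reflect a 48-hour exposure of cells in 96-well plates to compound at five concentrations. At the GI50, growth is halved.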 Activity calls are given as the source filed them. Cut-off read from the data, not from the text of the source: active = GI50 up to about 1.1 µM and inactive = higher.

Assays:
Experiment in all cases: DTP human tumour cell line panel, 48 h
DMS-273 = system: DMS-273
SR = system: SR
HCT-116 = system: HCT-116
NCI-H460 = system: NCI-H460
RXF 393 = system: RXF 393
HOP-18 = system: HOP-18
K562 = system: K562
LOX IMVI = system: LOX IMVI
SN12C = system: SN12C
NCI-H522 = system: NCI-H522
KM-20L2 = system: KM-20L2
TK-10 = system: TK-10
HOP-92 = system: HOP-92
SNB-75 = system: SNB-75
RPMI-8226 = system: RPMI-8226
SK-MEL-5 = system: SK-MEL-5
SNB-19 = system: SNB-19
NCI/ADR-RES = system: NCI/ADR-RES

SMILES | GI50 (DMS-273) | GI50 (SR) | GI50 (HCT-116) | GI50 (NCI-H460) | GI50 (RXF 393) | GI50 (HOP-18) | GI50 (K562) | GI50 (LOX IMVI) | GI50 (SN12C) | GI50 (NCI-H522) | GI50 (KM-20L2) | GI50 (TK-10) | GI50 (HOP-92) | GI50 (SNB-75) | GI50 (RPMI-8226) | GI50 (SK-MEL-5) | GI50 (SNB-19) | GI50 (NCI/ADR-RES)
C=CCOCCC(CC=C)C(=O)CC(=O)OC (stereo not drawn) | 45.3 µM (inactive) | 3.56 µM (inactive) | 45.6 µM (inactive) | > 100 µM (inactive) | > 100 µM (inactive) | > 100 µM (inactive) | 19.3 µM (inactive) | 27.9 µM (inactive) | > 100 µM (inactive) | > 100 µM (inactive) | > 100 µM (inactive) | > 100 µM (inactive) | 90.4 µM (inactive) | 25.9 µM (inactive) | 25.3 µM (inactive) | > 100 µM (inactive) | > 100 µM (inactive) | 
Cc1ccc(C#CS(=O)(=O)C(F)(F)F)cc1 | > 100 µM (inactive) |  | > 100 µM (inactive) | > 100 µM (inactive) | > 100 µM (inactive) | > 100 µM (inactive) | > 100 µM (inactive) | > 31.6 µM (inactive) | > 100 µM (inactive) | > 100 µM (inactive) | > 100 µM (inactive) |  | > 100 µM (inactive) | > 100 µM (inactive) | > 100 µM (inactive) | > 100 µM (inactive) | > 100 µM (inactive) | > 100 µM (inactive)
N#CC1=C(O)NC(O)=C(C#N)C1c1c(Cl)cccc1Cl | 26.2 µM (inactive) | > 100 µM (inactive) | 29 µM (inactive) | 20.9 µM (inactive) | 7.8 µM (inactive) | > 100 µM (inactive) | > 100 µM (inactive) | 15.8 µM (inactive) | 31.8 µM (inactive) | 35.2 µM (inactive) | 34.8 µM (inactive) | 40.4 µM (inactive) | 15.8 µM (inactive) | 11.7 µM (inactive) | > 100 µM (inactive) | 27.3 µM (inactive) | 38.6 µM (inactive) | 
O=C(O)c1ccc(Nc2c3ccccc3nc3ccccc23)cc1 | 38.9 µM (inactive) |  | 45 µM (inactive) | 22.6 µM (inactive) | > 100 µM (inactive) | > 100 µM (inactive) | 76.2 µM (inactive) | 60.8 µM (inactive) | 64.7 µM (inactive) | > 75.7 µM (inactive) | > 100 µM (inactive) |  | > 65 µM (inactive) | > 83.9 µM (inactive) | 54.8 µM (inactive) | > 68.1 µM (inactive) | > 86.7 µM (inactive) | > 76 µM (inactive)
COc1ccc2[nH]c3c(C)c4ccncc4c(C)c3c2c1 | 0.218 µM (active) |  | 0.0425 µM (active) | 0.0292 µM (active) | 0.1 µM (active) | 1.29 µM (inactive) | 0.196 µM (active) | 0.251 µM (active) | 0.177 µM (active) | 0.681 µM (active) | 0.169 µM (active) |  | 0.23 µM (active) | 1.17 µM (inactive) | 0.289 µM (active) | 1.26 µM (inactive) | 0.532 µM (active) | 0.139 µM (active)
CCOC(=O)c1c[nH]c2cc3c(cc2c1=O)CCS3(=O)=O.CCOC(=O)c1c[nH]c2ccc3c(c2c1=O)S(=O)(=O)CC3 | > 100 µM (inactive) |  | > 100 µM (inactive) | > 100 µM (inactive) | > 100 µM (inactive) | 97.1 µM (inactive) | > 100 µM (inactive) | > 100 µM (inactive) | > 100 µM (inactive) | > 100 µM (inactive) | > 100 µM (inactive) |  | > 100 µM (inactive) | > 100 µM (inactive) | > 100 µM (inactive) | > 100 µM (inactive) | > 100 µM (inactive) | > 100 µM (inactive)
O=C1NC(=O)C(CCO)(c2ccccc2)C(=O)N1 | > 100 µM (inactive) |  | > 100 µM (inactive) | > 100 µM (inactive) | > 100 µM (inactive) | > 100 µM (inactive) | > 100 µM (inactive) | > 31.6 µM (inactive) | > 100 µM (inactive) | > 100 µM (inactive) | > 100 µM (inactive) |  | > 100 µM (inactive) | > 100 µM (inactive) |  | > 100 µM (inactive) | > 100 µM (inactive) | > 100 µM (inactive)
